Test [1] relates to XO. Set-up: method as in PMID 16450295. The note with it: cited from earlier work.
For test [2], the system named is MAO-A. Set-up: method as in PMID 24140951. The note with it: control of MAO-A inhibition; cited from earlier work.
Test [3] deals with T1, Human monoamine oxidase A (Homo sapiens, UniProt P21397).
T1 construct: purchased Sigma-Aldrich (Milan, Italy)
T1 sequence (P21397 1-527): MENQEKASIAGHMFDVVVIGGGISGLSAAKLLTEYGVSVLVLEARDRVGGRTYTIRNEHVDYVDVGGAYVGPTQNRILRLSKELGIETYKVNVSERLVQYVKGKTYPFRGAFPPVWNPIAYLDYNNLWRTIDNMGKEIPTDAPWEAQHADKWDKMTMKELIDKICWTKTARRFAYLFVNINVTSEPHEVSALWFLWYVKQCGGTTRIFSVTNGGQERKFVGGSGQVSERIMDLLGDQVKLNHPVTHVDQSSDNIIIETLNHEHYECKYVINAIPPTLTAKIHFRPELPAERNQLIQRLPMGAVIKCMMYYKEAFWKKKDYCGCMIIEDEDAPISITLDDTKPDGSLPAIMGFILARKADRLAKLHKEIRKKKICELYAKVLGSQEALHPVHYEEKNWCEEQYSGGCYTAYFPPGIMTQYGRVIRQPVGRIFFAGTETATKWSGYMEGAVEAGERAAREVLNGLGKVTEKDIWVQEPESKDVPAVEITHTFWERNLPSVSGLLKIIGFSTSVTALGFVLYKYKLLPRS
Kind of test: Steady-state MAO-A activity, fluorimetric kynuramine assay. The note with it: 40 μM kynuramine, 20 min, pH 7.1; mean ± SD (n); from semilogarithmic plot. The class given is biochemical. On the procedure:
Monoamine oxidase activity was assayed by the fluorimetric method, as previously reported. This method, based on the monoamine oxidase oxidation of its non-selective substrate kynuramine, led to the production of […], which becomes fluorescent in alkaline conditions. In steady-state measurements of MAO activity, the reaction mixture (250 µL), prepared in a 50 mM potassium phosphate buffer, pH 7.1 (buffer A), contained 40 μM kynuramine in the absence or presence of the indicated concentration of the inhibitor. The DMSO concentration carried over by the inhibitor was 0.5% (v/v), and an identical concentration of DMSO was used in the absence of the inhibitor. […] The reaction was stopped by adding 150 μL of 2 M NaOH and, after 10 min of incubation at room temperature, 240 μL of water. After centrifugation (10 min at 15,000 rpm), the fluorescence signal was measured on 500 μL of supernatant using a Cary Eclipse Spectrofluorimeter (Agilent Technologies, Milan, Italy) at room temperature (20–25 °C).

The target in test [4] is T2, Human monoamine oxidase B (Homo sapiens, UniProt P27338).
T2 construct: purchased Sigma-Aldrich (Milan, Italy)
T2 sequence (P27338 1-520): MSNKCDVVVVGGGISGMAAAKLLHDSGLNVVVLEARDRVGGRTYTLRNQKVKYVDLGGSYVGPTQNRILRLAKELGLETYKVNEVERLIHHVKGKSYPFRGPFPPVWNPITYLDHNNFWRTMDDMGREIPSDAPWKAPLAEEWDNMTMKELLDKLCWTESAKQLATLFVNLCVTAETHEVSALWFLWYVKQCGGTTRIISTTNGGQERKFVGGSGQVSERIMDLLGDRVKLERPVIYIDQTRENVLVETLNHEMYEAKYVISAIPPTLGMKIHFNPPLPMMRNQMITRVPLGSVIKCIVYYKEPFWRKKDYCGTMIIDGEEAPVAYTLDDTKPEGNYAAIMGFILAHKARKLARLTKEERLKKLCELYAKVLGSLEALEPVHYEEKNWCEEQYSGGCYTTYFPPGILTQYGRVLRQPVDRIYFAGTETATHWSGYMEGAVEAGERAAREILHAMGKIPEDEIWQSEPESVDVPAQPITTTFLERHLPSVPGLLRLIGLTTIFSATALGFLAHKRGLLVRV
Kind of test: Steady-state MAO-B activity, fluorimetric kynuramine assay. The test is classed as biochemical. The note with it: 40 μM kynuramine, 20 min, pH 7.1; mean ± SD (n); from semilogarithmic plot. The protocol: (§1) Monoamine oxidase activity was assayed by the fluorimetric method, as previously reported. This method, based on the monoamine oxidase oxidation of its non-selective substrate kynuramine, led to the production of […], which becomes fluorescent in alkaline conditions. In steady-state measurements of MAO activity, the reaction mixture (250 µL), prepared in a 50 mM potassium phosphate buffer, pH 7.1 (buffer A), contained 40 μM kynuramine in the absence or presence of the indicated concentration of the inhibitor. The DMSO concentration carried over by the inhibitor was 0.5% (v/v), and an identical concentration of DMSO was used in the absence of the inhibitor. The reaction started with the addition of 3.75 μg monoamine oxidase A or B and lasted 20 min. The reaction was stopped by adding 150 μL of 2 M NaOH and, after 10 min of incubation at room temperature, 240 μL of water. After centrifugation (10 min at 15,000 rpm), the fluorescence signal was measured on 500 μL of supernatant using a Cary Eclipse Spectrofluorimeter (Agilent Technologies, Milan, Italy) at room temperature (20–25 °C). Excitation and emission wavelengths of 315 and 380 nm, respectively, were employed; slits were set to 10 nm for both the excitation and emission beams.

For test [5], the target named is T3, bovine milk xanthine oxidase (Bos taurus, UniProt P80457).
T3 construct: bovine milk xanthine oxidase; purchased Sigma-Aldrich (Milan, Italy); host or cells: bovine milk
T3 sequence (P80457 whole entry): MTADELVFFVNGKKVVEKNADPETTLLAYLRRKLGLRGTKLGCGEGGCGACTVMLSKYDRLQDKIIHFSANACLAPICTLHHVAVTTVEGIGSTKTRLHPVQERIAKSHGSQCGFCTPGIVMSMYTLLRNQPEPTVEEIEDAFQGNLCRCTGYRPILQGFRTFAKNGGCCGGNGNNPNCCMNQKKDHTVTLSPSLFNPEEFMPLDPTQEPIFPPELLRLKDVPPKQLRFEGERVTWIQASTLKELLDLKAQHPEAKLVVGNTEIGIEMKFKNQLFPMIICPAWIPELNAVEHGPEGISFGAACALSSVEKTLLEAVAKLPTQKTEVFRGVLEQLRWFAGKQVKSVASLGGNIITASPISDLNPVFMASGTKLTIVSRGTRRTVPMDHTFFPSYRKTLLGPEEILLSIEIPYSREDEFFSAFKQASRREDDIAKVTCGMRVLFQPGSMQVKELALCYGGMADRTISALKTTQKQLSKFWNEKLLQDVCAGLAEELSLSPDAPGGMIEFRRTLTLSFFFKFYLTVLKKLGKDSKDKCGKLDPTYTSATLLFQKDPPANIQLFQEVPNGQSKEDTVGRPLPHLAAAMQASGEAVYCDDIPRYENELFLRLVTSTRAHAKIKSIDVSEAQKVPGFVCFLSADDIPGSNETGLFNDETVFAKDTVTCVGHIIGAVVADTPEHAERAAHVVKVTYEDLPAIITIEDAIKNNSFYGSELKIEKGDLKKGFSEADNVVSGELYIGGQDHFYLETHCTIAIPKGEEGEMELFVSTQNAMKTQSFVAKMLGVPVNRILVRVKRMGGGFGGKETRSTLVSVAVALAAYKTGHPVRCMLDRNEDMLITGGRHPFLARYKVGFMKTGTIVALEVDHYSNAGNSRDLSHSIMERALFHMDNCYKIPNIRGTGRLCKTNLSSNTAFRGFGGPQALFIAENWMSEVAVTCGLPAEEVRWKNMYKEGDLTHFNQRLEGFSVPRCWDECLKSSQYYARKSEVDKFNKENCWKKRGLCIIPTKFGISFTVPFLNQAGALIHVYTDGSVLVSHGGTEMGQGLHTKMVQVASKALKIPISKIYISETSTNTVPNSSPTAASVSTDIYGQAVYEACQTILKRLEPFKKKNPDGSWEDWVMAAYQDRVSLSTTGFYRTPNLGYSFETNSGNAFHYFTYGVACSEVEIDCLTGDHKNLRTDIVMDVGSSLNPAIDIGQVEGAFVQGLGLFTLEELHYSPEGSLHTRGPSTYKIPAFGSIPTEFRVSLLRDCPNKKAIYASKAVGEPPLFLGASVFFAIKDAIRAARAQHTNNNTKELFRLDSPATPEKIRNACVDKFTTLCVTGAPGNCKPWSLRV
The experiment in a line: Steady-state xanthine oxidase activity, spectrophotometric assay. The class given is biochemical. On the procedure: Xanthine oxidase activity was assayed through a spectrophotometric method, essentially as previously reported. […] The DMSO concentration carried over by the inhibitor was 1% (v/v), and an identical concentration of DMSO was used in the absence of the inhibitor. The reaction started with the addition of XO and was followed kinetically for up to 30 s. The initial rate of uric acid formation was expressed as ΔE/min. The effect of each inhibitor in the XO assay was evaluated, and the data were treated as previously indicated for the MAO assay, including the extrapolation of the IC50 values.

Test [6] addresses T1, Human monoamine oxidase A. The experiment in a line: Kinetic analysis of MAO-A inhibition (KM, Vmax, apparent Ki). The class given is biochemical. On the procedure: as §1
(§2) The kinetic parameters KM and Vmax for MAO and XO substrates were obtained through kinetic measurements of these activities performed at different substrate concentrations, either in the absence or in the presence of two fixed concentrations of the various inhibitors. […] Each assay was realized as reported above, and the values of the initial velocity (vi) of the reaction were evaluated under the various experimental conditions. The data of vi were nonlinearly fitted according to the Michaelis–Menten equation or analyzed by the Lineweaver–Burk equation in order to derive the kinetic parameters in the absence (KM and Vmax) or in the presence (K’M and V’max) of the inhibitor.
(§3) The inhibition power of the various compounds and their inhibition mechanisms were evaluated. […] However, an apparent inhibition constant (K’i) was calculated at each inhibitor concentration using the equations hereafter reported, depending on the type of inhibition tentatively approached from the experimental data:K’i = V’max × [I]/(Vmax − V’max)(1) K’i = KM × [I]/(K’M − KM)(2) K’i = K’M × [I]/(KM − K’M)(3)
(§4) The K’i values obtained at different inhibitor concentrations were then averaged to obtain a unique value of apparent Ki for each compound.

For test [7], the target named is T2, Human monoamine oxidase B. The experiment in a line: Kinetic analysis of MAO-B inhibition (KM, Vmax, apparent Ki). The class given is biochemical. The protocol: as §1, §2, §3, §4
Test [8] concerns the target T3, bovine milk xanthine oxidase. Kind of test: Kinetic analysis of xanthine oxidase inhibition. The test is classed as biochemical. The protocol: Xanthine oxidase activity was assayed through a spectrophotometric method, essentially as previously reported. In particular, the oxidation of xanthine to uric acid catalyzed by XO was monitored with a Cary 100 UV-Vis Spectrophotometer (Agilent Technologies, Milan, Italy) at 25 °C, thanks to the increase in absorbance at 295 nm due to uric acid formation. In steady-state measurements of XO activity, the assay was carried out in a 500-μL final volume reaction mixture containing 100 mM phosphate buffer, pH 7.8 plus 0.1 mM EDTA (buffer B), 75 μM xanthine, and different concentrations of the various inhibitors. The DMSO concentration carried over by the inhibitor was 1% (v/v), and an identical concentration of DMSO was used in the absence of the inhibitor. The reaction started with the addition of XO and was followed kinetically for up to 30 s. The initial rate of uric acid formation was expressed as ΔE/min. The effect of each inhibitor in the XO assay was evaluated, and the data were treated as previously indicated for the MAO assay, including the extrapolation of the IC50 values.
as §2
The inhibition power of the various compounds and their inhibition mechanisms were evaluated. […]

[9] abbreviates: kynuramine 25–150 µM, two fixed inhibitor concentrations.

Each structure is given as a SMILES string.

Consider `Oc1ncnc2[nH]ncc12` [Allopurinol, allopurinol], for which, in test [1], the “Inhibition Type (XO)” value is “Competitive [53]” and the Ki is 1800 nM.

`C#CCN(C)CCCOc1ccc(Cl)cc1Cl` [Clorgyline, clorgyline]: in test [2], the “Inhibition Type (MAO-A)” value was “Inactivator [52]”.

Consider `O=C(OCCc1cc(O)c(O)cc1[N+](=O)[O-])C1CCN(Cc2ccccc2)CC1` [HT2, 4,5-dihydroxy-2-nitrophenethyl 1-benzylpiperidine-4-carboxylate], for which the IC50 in test [3] was 322 ± 58 µM; in test [4], 184 ± 48 µM; in test [5] (75 μM xanthine, pH 7.8, 25 °C, mean ± SE (n), extrapolated from semilogarithmic plot, read-out: IC50 XO inhibition), 109 ± 20 µM. Moreover, the “Inhibition of XO activity (in words)” value in test [5] (steady-state, concentration series) is given as “clearly evident concentration-dependent inhibition”. For the same compound, the Ki in test [6] (apparent Ki, mean ± SE (n), read-out: Ki, Calculated from Vmax Decrease (MAO-A)) is 398 ± 56 µM; in test [7] (uncompetitive, apparent Ki, mean ± SE (n), read-out: Ki, average value from Vmax or KM decrease (MAO-B)), 186 ± 98 µM; in test [8] (apparent Ki, mean ± SE (n), read-out: Ki Calculated from KM Increase (XO)), 63 ± 8 µM. Further, the “Inhibition Type (MAO-A)” value in test [6] (setting [9]) was “noncompetitive”. In addition, the “Inhibition Type (MAO-B)” value in test [7] (setting [9]) is recorded as “uncompetitive”. Also, the “Note: type of inhibition approached (XO)” value in test [8] is given as “approaching competitive”. In addition, in test [8] (xanthine 4–30 µM, 75 or 100 µM HT2), the “Inhibition Type (XO)” value is given as “mixed-type”.

The IC50 is the concentration at which inhibition is half-maximal.

These data come from publication PMC10819651 (Molecules, 2024).
